Measured values taken from patent US4020111A, “Propynyloxy alkyl arene insecticides” (priority 1975, dated 1977).

Columns and labels:
[1] = system: IN/WHO strain house flies; experiment: topical application test, percent kill after 24 hours, IN/WHO strain; format: in vivo, house fly (susceptible IN/WHO strain); details: HRS 1422 alone 0.125 μg/fly
Experimental: In Table IX, and in the tables following it, the doses of topically applied insecticides and of synergists unless otherwise noted are expressed as micrograms per fly (μg/fly).
The synergistic effect of O-(2-propynyl) oximes with mobam was determined from topical application tests on susceptible, female, IN/WHO strain house flies and from tests on resistant, female, Rutgers A strain house flies. The synergist and insecticide were dissolved in ACS Grade acetone in such quantities that a 1.0μ liter volume applied to the thorax of 3-to-5 day old CO2 -anesthetized female adult house flies contained the desired dosage. After being treated, the flies were confined, 10 to a plaster petri dish, with 3-5 dishes/treatment, and held for 24-hr. observation of mortality. Reconstituted skim milk on cotton dental wicks was provided during the holding period. The percent kills after 24 hours are shown in Table X for the IN/WHO strain and Table XI for the Rutgers A strain.
The synergistic effect of benzyl 2-propynyl ethers with mobam was determined from topical application tests on IN/WHO and Rutgers A strain houseflies, following the procedure of Example 5. The percent kills after 24 hours are shown in Table XIV for the IN/WHO strain and in Table XV for the Rutgers A strain.
The effects of varying the insecticide dose and the synergist-insecticide ratio are further illustrated, with synergist compounds II-D, II-E, II-F and Mobam insecticide, in Tables XVI, XVII and XVIII.
The synergistic effect on IN/WHO flies of synergist compound II-K with Dimetilan, pyrolan, Baygon and HRS 1422 is illustrated by the 24 hour percent mortality data in Tables XIX, XX and XXI.
The effect on IN/WHO flies of synergist compound IV-C, identified in Table IV, with mobam was determined by the topical application procedure of Example 5.
The synergistic effect with Diazinon of compounds I-B, I-D, I-F, I-G, I-H and I-I, identified in Tables I and Ia, was determined from topical application tests on IN/WHO strain houseflies and on Rutgers A strain houseflies by the procedure of Example 5. The percent kills after 24 hours are shown in Table XXV for the IN/WHO strain and Table XXVI for the Rutgers A strain.
The synergistic effect with GS 13005 of compounds I-A, I-B, I-D, I-E, I-F, I-G and I-I was determined from topical application tests to IN/WHO strain, Rutgers A strain and polyvalent CH strain houseflies using the procedures of Example 5. The percent kills of the IN/WHO strain flies after 24 hours are shown in Table XXVIII; of the Rutgers A strain, in Table XXIX; and of the polyvalent CH strain, in Table XXX. The doses of insecticide alone to the CH strain files caused 10-40% mortality.
The synergistic effect with Diazinon and GS 13005 of various of the benzyl 2-propynyl ethers identified in Tables II and IIa was determined by topical application tests on IN/WHO strain, and Rutgers A strain and polyvalent, resistant, CH strain houseflies using the procedures of Example 5. The percent kills after 24 hours of IN/WHO strain flies are shown in Table XXXI; of Rutgers A strain flies, in Table XXXII; and of CH strain flies, in Table XXXIII. The doses of insecticide alone to the CH strain flies caused 10-40% mortality.
The synergist effect on IN/WHO flies of synergist compound II-K with Gardona and Bidrin is illustrated by the 24 hour percent mortality data in Tables XXXIV and XXXV.
The synergistic effect on IN/WHO strain flies and Rutgers A strain flies of compound IV-C with GS 13005 and with Diazinon was determined by the topical application procedure of Example 5. The percent kills of IN/WHO strain flies after 24 hours are shown in Tables XXXVI and XXXVII; the percent kills of Rutgers A strain flies are shown in Tables XXXVIII and XXXIX.

mice [2] = experiment: extension of Secobarbital sleeping time by synergists; format: in vivo, Swiss albino white male mice; details: Secobarbital 37 mg/K; for Relative Sleeping Time: treated/control
Experimental: (§1) The selectivity of the synergist compounds of this invention is illustrated by the results of sleeping-time extension tests and of acute toxicity tests on Swiss albino white male mice.
(§2) The effect of various synergist compounds on sleeping time of sodium secobarbital [Secobarbital] and of 3,3-diethyl-5-methyl-2,4-dioxypiperidine [Noludar] was determined by administering the drug, with and without synergist, to approximately 38-day old male mice weighing from 25 to 30 grams. Synergists were administered in each of two doses, 74.0 mg/kg (dilution being 2.0 mg/0.1 ml corn oil), and 110.0 mg/kg (dilution 3.0 mg/0.1 ml oil). Secobarbital was administered at a dose of 37.0 mg/kg (dilution 1.0 mg/0.1 ml water). Noludar was administered at a dose of 110.0 mg/kg (dilution 3.0 mg/0.1 ml water). The synergist was administered one hour prior to administration of the Secobarbital or Noludar. Secobarbital and Noludar sleeping times were obtained for both the control (drug only) and the treated (synergist plus drug) mice by noting the time lapse between the administration of the drug and the recovery of the righting reflex, i.e. when the animal regains conciousness and can walk up an inclined wooden tray with coordination. The relative sleeping time (R.S.) was noted. The R.S. is the extended sleeping time in the treated mice (synergist plus drug) divided by the sleeping time in the control mice (drug only). The mean sleeping time for the treated mice and the R.S. are shown on Table XXXXIV for various synergist compounds.

[3] = system: Wilson strain house flies; format: in vivo, house fly (susceptible Wilson strain); details: for Contact Synergistic Ratio, Carbaryl (LC50 insecticide alone / LC50 with synergist): in vivo; for Contact Synergistic Ratio, Pyrolan (LC50 insecticide alone / LC50 with synergist): synergist to insecticide 5:1 by weight, 24 h
Experimental: The required solutions of the insecticide and of the synergist compound were prepared in acetone at a concentration of one milligram per milliliter. One-pint wide mouth glass jars were coated wiith the appropriate insecticide-synergist combination by rolling the jars containing aliquots of the appropriate solutions diluted to three milliliters with acetone to deposit, by evaporation, a film of the test materials. The flies were transferred under carbon dioxide anesthesia and held in the jar at room temperature. Perforated aluminum foil was used to cover the jars and to hold cotton saturated with 10% sugar solution. Counts were made at intervals, but the recorded mortality was based on 24-hour kill, rather than knockdown. All prostrate nonmoving flies were considered dead. A determination was then made of the contact synergistic ratio [SR], which is the ratio of the LC50 of insecticide alone to the LC50 of the insecticide when applied together with the synergist. The LC50 of the insecticide was estimated from a log-probit plot of percent kill versus dosage. […] The LC50 of the combination of insecticide and synergist was determined at a synergist to insecticide parts by weight ratio of five to one.

mice [4] = experiment: synergism of acute toxicity of Dimetilan, GS 13005, Secobarbital and Methadone (intraperitoneal); format: in vivo, Swiss albino white male mice; details: for number of mice dead: 48 hours, of eight mice
Experimental: The synergism of the acute toxicity of Dimetilan by various synergists was determined by tests on Swiss albino, white male mice aged 5 to 6 weeks and weighing 23 to 27 grams. The synergists and insecticides were dissolved in corn oil and the drugs were dissolved in distilled water. All compounds were administered intraperitoneally by injection in the lower quadrent of the abdomen. The synergist was administered in 0.1 ml of corn oil 1 hour prior to administration of the insecticide. Eight mice were treated, per dosage, with each synergist. The mice were watched for a minimum of 6 hours while held in a glass jar with bedding individually after intraperitoneal injection of the test solutions. Lethality was noted, the animals were weighed and transferred in cages, and food and water were supplied. Control mice were given 0.1 ml of corn oil at the time of administration of the synergist to the test mice and 0.1 ml corn oil plus Dimetilan at the time of administration of the insecticide to the test mice.
By the same procedure, the synergism of acute toxicity of GS 13005, Secobarbital and 6-dimethylamino-4,4-diphenyl-3-heptanone [Methadone] was determined.

mice [5] = experiment: extension of Noludar sleeping time by synergists; format: in vivo, Swiss albino white male mice; details: Noludar 110 mg/K, synergist 110 mg/K; for Relative Sleeping Time: treated/control
Experimental: as §1, §2

[6] = Dimetilan 8 mg/kg + synergist 240 mg/kg ip
[7] = Dimetilan 8 mg/kg + synergist 80 mg/kg ip

SMILES	Mean Sleeping Time (mice [2]; synergist 74 mg/K) [min]	Relative Sleeping Time (mice [2]; synergist 74 mg/K)	Mean Sleeping Time (mice [2]; synergist 110 mg/K) [min]	Relative Sleeping Time (mice [2]; synergist 110 mg/K)	Contact Synergistic Ratio, Carbaryl (LC50 insecticide alone / LC50 with synergist) [3]	Contact Synergistic Ratio, Pyrolan (LC50 insecticide alone / LC50 with synergist) [3]	number of mice dead (mice [4]; [6])	Mean Sleeping Time (mice [5]) [min]	Relative Sleeping Time (mice [5])	number of mice dead (mice [4]; [7])	other results
CNC(=O)Oc1cc(C(C)C)cc(C(C)C)c1 [HRS 1422, 3,5-di-isopropylphenyl methylcarbamate, reference compound]											24 hour percent mortality [1]: 0%
C#CCON=Cc1ccc(N(C)C)cc1 [I-C]	30	1.1	108	1.8	200	20	0	34	1.0		
C#CCOCc1ccc(Cl)cc1 [II-A]					50	7					
C#CCOCc1ccc(Cl)cc1Cl [II-B]					50	15					
C#CCOCc1ccc2c(c1)OCO2 [II-G]					100	15					
C#CCOCc1cccc(Cl)c1[N+](=O)[O-] [II-I]	31	1.2	32	1.3			3	56	1.8	0	
C#CCOCc1ccc(Cl)cc1[N+](=O)[O-] [II-J]	27	1.0	30	1.4			4	70	2.2	0	mice lethality (number dead) (mice [4]; GS 13005 71 mg/kg + synergist 213 mg/kg): 6; mice lethality (number dead) (mice [4]; Methadone 32 mg/kg + synergist 215 mg/kg): 3; mice lethality (number dead) (mice [4]; Secobarbital 90 mg/kg + synergist 215 mg/kg): 0
C#CCOCc1cccc([N+](=O)[O-])c1Cl [II-L]	31	1.0	42	1.8			5	56	1.8	0	
C#CCOCc1ccc(Cl)c([N+](=O)[O-])c1 [II-M]	29	1.0	47	2			3	47	2.1	0	
C#CCOCc1ccc([N+](=O)[O-])cc1Cl [II-N]	20	1.0	39	1.7			4	58	1.9	0	
C#CCOCc1ccc([N+](=O)[O-])c(Cl)c1 [II-O]			26	1.1			2	52	2.4	0	
C#CCn1ncc2cc([N+](=O)[O-])ccc21 [III-A]			50	1.1	143	30	0	32	1.0		
C#CCn1nc(Cl)c2ccccc21 [III-B]			6	1.3	117	30	0	46	1.0		
C#CCn1nc(Cl)c2ccc([N+](=O)[O-])cc21 [III-C, N-(2-propynyl)-3-chloro-6-nitroindazole]					53	10					
C#CCOC(c1cccc2ccccc12)C(C)[N+](=O)[O-] (stereo not shown) [IV-B, 2-propynyl 1-naphthyl-2-nitropropyl ether]					50	10					
CCC(=O)C(CC(C)N(C)C)(c1ccccc1)c1ccccc1 (stereo not shown) [Methadone, 6-dimethylamino-4,4-diphenyl-3-heptanone, reference compound]											mice lethality (number dead) (mice [4]; control: Methadone 32 mg/kg in 0.1 ml corn oil): 2
C=CCC1(C(C)CCC)C(=O)NC(=O)NC1=O (stereo not shown) [Secobarbital, sodium secobarbital, reference compound]											mice lethality (number dead) (mice [4]; control: Secobarbital 90 mg/kg in 0.1 ml corn oil): 0
